Read-outs that look alike come from different tables or passages of the source. Some results are limits rather than exact numbers.

One test deals with T1, EGFR(L858R/T790M) (Homo sapiens, UniProt P00533, L858R/T790M).
T1 construct: purchased from Carna (GST-a.a. 669-1210)
The experiment in a line: EGFR biochemical assay (HTRF), IC50 determinations. The essentials: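 HTRF kinase reaction with biotin-TK peptide at room temperature, quenched with EDTA at 60 min and detected with PT66K/SAXL after 1 h. Without preincubation, enzyme starts the reaction with compound, ATP and peptide present. With preincubation, compound, enzyme and peptide sit at room temperature for a set time before ATP is added.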

The target in test [1] is human EGFR L858R/T790M (NIH/3T3 cells) (Homo sapiens, UniProt P00533, L858R/T790M). As to the kind of experiment: EGFR target modulation in engineered NIH/3T3 cell lines (phospho-EGFR Y1068 AlphaLISA), EGFR L858R/T790M. Format: cell-based. Particulars: engineered NIH/3T3 cells, read-out: NIH3T3 IC50 (μM) EGFR (L858R/T790M). In a few lines:
(§1)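 Read-out is phospho-Y1068 AlphaLISA on cell lysates, with anti-total EGFR at 1 nM final equilibrated 1 h at room temperature. Cells were dosed 3 h with a 12-point 1:3 series starting from a 10 μM stock. Only the WT line received 50 ng/ml EGF for 5 min.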

Test [2] concerns the target human EGFR L858R (NIH/3T3 cells) (Homo sapiens, UniProt P00533, L858R). As to the kind of experiment: EGFR target modulation in engineered NIH/3T3 cell lines (phospho-EGFR Y1068 AlphaLISA), EGFR L858R. It counts as cell-based. Particulars: engineered NIH/3T3 cells, read-out: NIH3T3 IC50 (μM) EGFR (L858R). The essentials: as §1
(In Alpha technology, singlet oxygen from a donor bead excites a nearby acceptor bead.)

In test [3] the target is human EGFR WT (NIH/3T3 cells, EGF-induced) (Homo sapiens, UniProt P00533). The experiment in a line: EGFR target modulation in engineered NIH/3T3 cell lines (phospho-EGFR Y1068 AlphaLISA), EGFR WT. To be noted: engineered NIH/3T3 cells, read-out: NIH3T3 IC50 (μM) EGFR (WT). Format: cell-based. In a few lines: as §1
Sequence of human EGFR WT (NIH/3T3 cells, EGF-induced) (P00533 25-1210): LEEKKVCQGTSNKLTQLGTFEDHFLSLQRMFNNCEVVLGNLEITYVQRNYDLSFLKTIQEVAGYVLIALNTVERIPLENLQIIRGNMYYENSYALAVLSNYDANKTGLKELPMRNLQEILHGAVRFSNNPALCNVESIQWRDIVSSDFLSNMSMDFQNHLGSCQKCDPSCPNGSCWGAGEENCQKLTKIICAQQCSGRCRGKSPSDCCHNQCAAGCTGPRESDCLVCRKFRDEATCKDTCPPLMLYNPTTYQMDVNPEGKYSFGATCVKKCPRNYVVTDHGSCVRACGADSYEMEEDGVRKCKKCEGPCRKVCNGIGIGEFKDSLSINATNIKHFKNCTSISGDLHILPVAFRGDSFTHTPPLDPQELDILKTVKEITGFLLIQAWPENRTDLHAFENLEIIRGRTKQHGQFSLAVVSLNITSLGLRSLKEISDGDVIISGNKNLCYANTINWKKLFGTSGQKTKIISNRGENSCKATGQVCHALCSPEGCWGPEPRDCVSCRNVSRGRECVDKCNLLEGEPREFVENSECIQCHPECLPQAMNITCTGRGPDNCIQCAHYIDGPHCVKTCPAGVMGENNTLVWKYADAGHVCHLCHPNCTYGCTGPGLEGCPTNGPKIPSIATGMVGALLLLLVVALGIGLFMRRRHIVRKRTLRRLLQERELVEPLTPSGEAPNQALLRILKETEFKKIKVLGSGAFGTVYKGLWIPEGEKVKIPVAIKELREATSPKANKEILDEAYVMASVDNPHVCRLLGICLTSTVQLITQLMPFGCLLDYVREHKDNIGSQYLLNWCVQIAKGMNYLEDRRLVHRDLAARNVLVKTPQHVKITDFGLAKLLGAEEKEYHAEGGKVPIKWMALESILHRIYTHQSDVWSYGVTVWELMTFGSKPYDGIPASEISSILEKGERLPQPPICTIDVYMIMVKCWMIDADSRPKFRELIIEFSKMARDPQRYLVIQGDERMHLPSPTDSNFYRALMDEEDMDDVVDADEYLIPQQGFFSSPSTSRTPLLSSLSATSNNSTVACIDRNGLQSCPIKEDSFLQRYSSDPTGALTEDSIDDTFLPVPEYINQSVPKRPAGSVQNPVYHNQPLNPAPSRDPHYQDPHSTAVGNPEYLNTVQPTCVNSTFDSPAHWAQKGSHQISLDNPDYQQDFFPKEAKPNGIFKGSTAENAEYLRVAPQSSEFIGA
Where [4] appears, read: EGFR (L858R/T790M) with 90 min pre-incubation, read-out: IC50 (μM) Column B.
[5] abbreviates: EGFR (L858R/T790M) with no pre-incubation, read-out: IC50 (μM) Column A.

Sequence of human EGFR L858R/T790M (NIH/3T3 cells) (P00533 25-1210 T790M/L858R): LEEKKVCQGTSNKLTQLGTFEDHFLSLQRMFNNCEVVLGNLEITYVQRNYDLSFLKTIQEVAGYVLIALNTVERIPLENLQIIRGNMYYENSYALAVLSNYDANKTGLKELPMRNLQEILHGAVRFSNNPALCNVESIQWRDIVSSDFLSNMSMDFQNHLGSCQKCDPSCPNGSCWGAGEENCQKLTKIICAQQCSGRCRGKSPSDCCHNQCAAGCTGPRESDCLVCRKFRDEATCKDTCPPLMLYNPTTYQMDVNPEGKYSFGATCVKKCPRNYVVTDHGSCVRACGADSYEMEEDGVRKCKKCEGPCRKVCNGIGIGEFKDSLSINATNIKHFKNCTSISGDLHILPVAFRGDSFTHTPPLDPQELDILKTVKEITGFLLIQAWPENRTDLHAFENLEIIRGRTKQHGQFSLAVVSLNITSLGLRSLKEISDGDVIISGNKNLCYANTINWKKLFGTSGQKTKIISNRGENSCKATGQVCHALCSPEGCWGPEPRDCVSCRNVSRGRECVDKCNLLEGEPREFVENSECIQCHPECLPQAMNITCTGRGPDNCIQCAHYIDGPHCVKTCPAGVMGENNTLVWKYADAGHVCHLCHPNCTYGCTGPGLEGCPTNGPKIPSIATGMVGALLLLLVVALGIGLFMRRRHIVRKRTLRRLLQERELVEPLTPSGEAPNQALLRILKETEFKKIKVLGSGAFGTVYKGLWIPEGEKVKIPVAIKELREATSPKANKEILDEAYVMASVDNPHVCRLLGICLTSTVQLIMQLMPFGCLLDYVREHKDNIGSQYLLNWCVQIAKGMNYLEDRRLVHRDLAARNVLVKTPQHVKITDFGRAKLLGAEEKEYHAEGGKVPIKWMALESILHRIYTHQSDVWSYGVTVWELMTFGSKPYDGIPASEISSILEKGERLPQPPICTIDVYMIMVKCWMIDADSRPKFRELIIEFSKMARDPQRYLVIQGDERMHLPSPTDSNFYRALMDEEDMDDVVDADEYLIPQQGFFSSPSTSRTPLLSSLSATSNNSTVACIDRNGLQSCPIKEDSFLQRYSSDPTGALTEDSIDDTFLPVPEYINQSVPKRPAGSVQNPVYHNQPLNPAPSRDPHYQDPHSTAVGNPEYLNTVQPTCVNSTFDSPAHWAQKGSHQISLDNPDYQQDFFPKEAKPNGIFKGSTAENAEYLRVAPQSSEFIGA
T1 sequence (P00533 669-1210 T790M/L858R): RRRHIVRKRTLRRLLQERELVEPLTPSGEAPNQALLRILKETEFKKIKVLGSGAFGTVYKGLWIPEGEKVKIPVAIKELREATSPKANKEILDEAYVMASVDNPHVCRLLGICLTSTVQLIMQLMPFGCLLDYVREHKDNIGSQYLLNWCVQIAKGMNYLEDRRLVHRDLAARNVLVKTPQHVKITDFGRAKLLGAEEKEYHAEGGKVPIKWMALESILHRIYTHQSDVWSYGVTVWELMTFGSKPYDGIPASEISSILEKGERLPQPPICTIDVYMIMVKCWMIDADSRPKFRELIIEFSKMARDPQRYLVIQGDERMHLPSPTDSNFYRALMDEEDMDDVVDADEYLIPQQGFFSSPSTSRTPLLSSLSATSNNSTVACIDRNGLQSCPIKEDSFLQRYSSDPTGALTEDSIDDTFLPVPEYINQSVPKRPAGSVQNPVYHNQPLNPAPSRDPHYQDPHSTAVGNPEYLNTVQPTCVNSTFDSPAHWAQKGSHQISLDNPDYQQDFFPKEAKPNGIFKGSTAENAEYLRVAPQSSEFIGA
Sequence of human EGFR L858R (NIH/3T3 cells) (P00533 25-1210 L858R): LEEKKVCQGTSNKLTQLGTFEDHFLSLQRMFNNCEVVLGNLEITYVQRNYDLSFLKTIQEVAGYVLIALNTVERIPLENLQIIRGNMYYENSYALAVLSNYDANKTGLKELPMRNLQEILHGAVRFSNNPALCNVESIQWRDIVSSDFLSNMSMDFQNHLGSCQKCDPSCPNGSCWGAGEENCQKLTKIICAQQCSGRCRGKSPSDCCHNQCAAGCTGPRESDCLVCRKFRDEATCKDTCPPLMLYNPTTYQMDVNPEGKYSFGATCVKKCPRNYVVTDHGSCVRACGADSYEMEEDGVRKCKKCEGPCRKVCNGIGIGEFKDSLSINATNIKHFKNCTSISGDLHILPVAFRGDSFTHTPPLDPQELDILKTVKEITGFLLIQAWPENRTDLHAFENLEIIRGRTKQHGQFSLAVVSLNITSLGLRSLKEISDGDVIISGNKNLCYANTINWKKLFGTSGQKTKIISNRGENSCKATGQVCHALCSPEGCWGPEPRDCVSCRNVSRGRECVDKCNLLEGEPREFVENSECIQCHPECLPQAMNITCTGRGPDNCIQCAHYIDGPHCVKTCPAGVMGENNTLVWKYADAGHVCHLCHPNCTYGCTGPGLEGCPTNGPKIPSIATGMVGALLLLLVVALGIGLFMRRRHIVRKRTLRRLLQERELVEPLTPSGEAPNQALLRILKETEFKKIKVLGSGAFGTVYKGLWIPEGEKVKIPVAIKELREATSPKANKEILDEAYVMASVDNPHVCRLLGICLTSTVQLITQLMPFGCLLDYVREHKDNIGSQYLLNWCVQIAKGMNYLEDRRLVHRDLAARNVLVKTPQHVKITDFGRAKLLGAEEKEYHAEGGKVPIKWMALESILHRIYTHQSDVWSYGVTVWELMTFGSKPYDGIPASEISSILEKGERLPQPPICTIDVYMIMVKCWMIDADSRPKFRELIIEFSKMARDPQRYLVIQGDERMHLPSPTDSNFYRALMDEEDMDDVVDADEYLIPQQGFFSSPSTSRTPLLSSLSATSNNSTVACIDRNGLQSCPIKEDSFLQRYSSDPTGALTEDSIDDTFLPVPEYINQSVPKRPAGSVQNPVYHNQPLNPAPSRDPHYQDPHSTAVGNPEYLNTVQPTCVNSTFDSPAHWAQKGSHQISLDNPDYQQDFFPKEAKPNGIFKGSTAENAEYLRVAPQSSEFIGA

Regarding `CCOc1cc(C(=O)Nc2nc3cccc(C)c3n2C2CCCCN(C(=O)/C=C/CN(C)C)C2)ccn1` (stereo not drawn) [Example 17-65], the IC50 on EGFR(L858R/T790M) (setting [4]) was less than 0.001 µM; on EGFR(L858R/T790M) (setting [5]), 0.004 µM; in test [1], 0.002 µM; in test [2], 0.002 µM; in test [3] it was 0.012 µM.
For `C=CC(=O)N1CCCC[C@@H](n2c(NC(=O)c3cccc(C(F)(F)F)c3)nc3ccccc32)C1` [Example 17-13], the IC50 at EGFR(L858R/T790M) (setting [4]) was less than 0.001 µM; at EGFR(L858R/T790M) (setting [5]) it was 0.006 µM; in test [1], 0.001 µM; in test [2], 0.008 µM; in test [3] it was 0.43 µM.
The corresponding values for `C=CC(=O)N1CCCCC(n2c(NC(=O)c3ccccc3)nc3cccc(C(=O)NCCC(=O)OC)c32)C1` (stereo not drawn) [Example 17-134] are 0.01 µM, 0.93 µM, 0.073 µM, 0.63 µM and more than 10 µM.
For `C=CC(=O)N1CCCCC(n2c(NC(=O)c3cccc(C(F)(F)F)c3)nc3cccc(C(=O)O)c32)C1` (stereo not drawn) [Example 20, 1-(1-acryloylazepan-3-yl)-2-(3-(trifluoromethyl)benzamido)-1H-benzo[d]imidazole-7-carboxylic acid], the IC50 is 0.005 µM on EGFR(L858R/T790M) (setting [4]); 0.11 µM at EGFR(L858R/T790M) (setting [5]); 0.82 µM in test [1]; 3.3 µM in test [2]; more than 10 µM in test [3].
The corresponding values for `Cc1cccc2nc(NC(=O)c3ccc4nccn4c3)n(C3CCCCN(C(=O)/C=C/CN(C)C)C3)c12` (stereo not drawn) [Example 17-55] are less than 0.001 µM, 0.007 µM, 0.003 µM, 0.002 µM and 0.022 µM.
As to `C=CC(=O)N1CCC[C@@H](n2c(NC(=O)c3cccc(C(F)(F)F)c3)nc3cc(CO)ccc32)C1` [Example 17-121], the IC50 on EGFR(L858R/T790M) (setting [4]) was less than 0.001 µM; at EGFR(L858R/T790M) (setting [5]), 0.127 µM; in test [1] it was 0.016 µM; in test [2], 0.259 µM; in test [3], more than 10 µM.
The corresponding values for `C=CC(=O)N1CCCC(n2c(NC(=O)c3cccc(C(F)(F)F)c3)nc3c2CN(C(=O)OC)CC3)C1` (stereo not drawn) [Example 17-170] are 0.006 µM, 0.66 µM, 0.01 µM, 0.39 µM and more than 10 µM.
As for `C=CC(=O)N1CCCC[C@@H](n2c(NC(=O)c3cccc(C(F)(F)F)c3)nc3cccc(C(=O)OC)c32)C1` [Example 17-96], the IC50 turned out to be 0.011 µM on EGFR(L858R/T790M) (setting [4]); 0.106 µM at EGFR(L858R/T790M) (setting [5]); 0.004 µM in test [1]; 0.016 µM in test [2]; 1.98 µM in test [3].
As to `C=CC(=O)N1CCCCC(n2c(NC(=O)c3cccc(C(F)(F)F)c3)nc3cccc(CN4CCCC4)c32)C1` (stereo not drawn) [Example 11, N-(1-(1-acryloyazepan-3-yl)-7-(pyrrolidin-1-ylmethyl)-1H-benzo[d]imidazol-2-yl)-3-(trifluoromethyl)benzamide], the IC50 was less than 0.001 µM on EGFR(L858R/T790M) (setting [4]); 0.012 µM at EGFR(L858R/T790M) (setting [5]); 0.002 µM in test [1]; 0.002 µM in test [2]; 0.12 µM in test [3].
For the molecule `C=CC(=O)N1CCCC(n2c(NC(=O)c3cccc(C(F)(F)F)c3)nc3c2CN(C(C)=O)CC3)C1` (stereo not drawn) [Example 17-172], the IC50 at EGFR(L858R/T790M) (setting [4]) is 0.268 µM; at EGFR(L858R/T790M) (setting [5]), 1.75 µM; in test [1], 0.173 µM; in test [2], 1.4 µM; in test [3], 8.7 µM.
The corresponding values for `C=CC(=O)N1CCCC(n2c(NC(=O)c3cccc(C(F)(F)F)c3)nc3c2CCN(C(=O)OC)C3)C1` (stereo not drawn) [Example 17-167] are 0.128 µM, 2.62 µM, 0.14 µM, 4.8 µM and more than 10 µM.
The corresponding values for `C=CC(=O)N1CCCC[C@@H](n2c(NC(=O)c3cccc(C(F)(F)F)c3)nc3cccc(Cl)c32)C1` [Example 17-18] are less than 0.001 µM, 0.014 µM, 0.004 µM, 0.02 µM and 2.48 µM.
The corresponding values for `C=CC(=O)N1CCCC(n2c(NC(=O)c3cccc(C(F)(F)F)c3)nc3ccncc32)C1` (stereo not drawn) [Example 17-9] are 0.218 µM, 4.1 µM, 0.194 µM, 8.6 µM and more than 10 µM.
As for `C=CC(=O)N1CCCCC(n2c(NC(=O)c3cccc(C(F)(F)F)c3)nc3cccc(C)c32)C1` (stereo not drawn) [Example 17-10], the IC50 on EGFR(L858R/T790M) (setting [4]) was less than 0.001 µM; on EGFR(L858R/T790M) (setting [5]), 0.014 µM; in test [1] it was 0.003 µM; in test [2], 0.007 µM; in test [3] it was 1.65 µM.
The corresponding values for `Cc1cccc2nc(NC(=O)c3ncccn3)n(C3CCCCN(C(=O)/C=C/CN(C)C)C3)c12` (stereo not drawn) [Example 17-36] are 0.35 µM, 10.6 µM, 2.96 µM, 3.5 µM and more than 10 µM.
Regarding `Cc1cccc2nc(NC(=O)c3ccc4ccccc4c3)n(C3CCCCN(C(=O)/C=C/CN(C)C)C3)c12` (stereo not drawn) [Example 17-66], the IC50 is less than 0.001 µM at EGFR(L858R/T790M) (setting [4]); 0.005 µM on EGFR(L858R/T790M) (setting [5]); 0.009 µM in test [1]; 0.005 µM in test [2]; 0.129 µM in test [3].
With `C=CC(=O)N1CCC[C@@H](n2c(NC(=O)c3cccc(C(F)(F)F)c3)nc3cc(C(=O)O)ccc32)C1` [Example 18, (R)-1-(1-acryloylpiperidin-3-yl)-2-(3-(trifluoromethyl)benzamido)-1H-benzo[d]imidazole-5-carboxylic acid], the IC50 on EGFR(L858R/T790M) (setting [4]) was 0.041 µM; at EGFR(L858R/T790M) (setting [5]), 2.59 µM; in test [1], 6.3 µM; in test [2], more than 10 µM; in test [3] it was more than 10 µM.
Consider `C=CC(=O)N1CCOCC(n2c(NC(=O)c3cccc(C(F)(F)F)c3)nc3cccc(C)c32)C1` (single isomer, unassigned) [Example 21-7B], for which the IC50 is less than 0.001 µM at EGFR(L858R/T790M) (setting [4]); 0.008 µM on EGFR(L858R/T790M) (setting [5]); 0.002 µM in test [1]; 0.012 µM in test [2]; 0.65 µM in test [3].
The corresponding values for `Cc1cccc2nc(NC(=O)c3ccccc3F)n(C3CCCCN(C(=O)/C=C/CN(C)C)C3)c12` (stereo not drawn) [Example 17-3] are less than 0.001 µM, 0.026 µM, 0.015 µM, 0.034 µM and 0.86 µM.
The corresponding values for `CC#CC(=O)N1CCCCC(n2c(NC(=O)c3cccc(C(F)(F)F)c3)nc3cccc(C)c32)C1` (stereo not drawn) [Example 17-19] are 0.007 µM, 0.33 µM, 0.044 µM, 0.33 µM and more than 10 µM.
The corresponding values for `C=CC(=O)N1CCCCC(n2c(NC(=O)c3ccccc3)nc3cccc(C)c32)C1` (stereo not drawn) [Example 17-11] are less than 0.001 µM, less than 0.001 µM, 0.002 µM, 0.015 µM and 1.54 µM.
For `C=CC(=O)N1CCCC(n2c(NC(=O)c3cccc(C(F)(F)F)c3)nc3c2CN(C)CC3)C1` (stereo not drawn) [Example 17-173], the IC50 at EGFR(L858R/T790M) (setting [4]) was 0.285 µM; at EGFR(L858R/T790M) (setting [5]) it was 6.6 µM; in test [1], 0.84 µM; in test [2], 0.67 µM; in test [3] it was more than 10 µM.
Take `C=CC(=O)N1CCCC(n2c(NC(=O)c3cccc(C(F)(F)F)c3)nc3c2CN(S(C)(=O)=O)CC3)C1` (stereo not drawn) [Example 17-171]: the IC50 on EGFR(L858R/T790M) (setting [4]) is 0.316 µM; on EGFR(L858R/T790M) (setting [5]), 2.4 µM; in test [1], 0.16 µM; in test [2], 1.86 µM; in test [3] it was 9.9 µM.
The corresponding values for `C=CC(=O)N1CCCCC(n2c(NC(=O)c3ccccc3)nc3cccc(C(=O)NCC(=O)O)c32)C1` (stereo not drawn) [Example 17-137] are 0.044 µM, 1.55 µM, 7.9 µM, more than 10 µM and more than 10 µM.
The corresponding values for `Cc1cccc2nc(NC(=O)c3cc(Cl)nc(OC(F)(F)F)c3)n([C@@H]3CCCCN(C(=O)/C=C/CN(C)C)C3)c12` [Example 17-104] are less than 0.001 µM, 0.018 µM, 0.02 µM, 0.023 µM and 0.61 µM.
The corresponding values for `Cc1cccc2nc(NC(=O)c3cccc(F)c3)n(C3CCCCN(C(=O)/C=C/CN(C)C)C3)c12` (stereo not drawn) [Example 17-21] are less than 0.001 µM, 0.005 µM, 0.004 µM, 0.007 µM and 0.32 µM.
For `C=CC(=O)N1CCCCC(n2c(NC(=O)c3ccccc3)nc3cccc(C(=O)N4C[C@@H](O)[C@H](O)C4)c32)C1` (stereo partly drawn) [Example 17-140], the IC50 on EGFR(L858R/T790M) (setting [4]) stood at 0.043 µM; at EGFR(L858R/T790M) (setting [5]) it was 0.94 µM; in test [1] it was 0.181 µM; in test [2], 1.64 µM; in test [3], 7.9 µM.

Values taken from patent US9440957B2, “Compounds and compositions for modulating EGFR Activity” (Novartis AG, priority 2012, dated 2016).
